Test results taken from patent US10537570B2, “Use of pimobendan for the reduction of heart size and/or the delay of onset of clinical symptoms in patients with asymptomatic heart failure due to mitral valve disease” (priority 2016, dated 2020).

Assays:
[1] = system: dogs suffering from asymptomatic (occult, preclinical) heart failure due to mitral valve disease (MVD); test: Interim analysis: pimobendan vs placebo in dogs with asymptomatic heart failure due to MVD; assay type: in vivo
[2] = system: dogs with MMVD and echocardiographic and radiographic evidence of cardiomegaly; conditions: dog, in vivo
[3] = system: dogs with asymptomatic mitral valve disease; conditions: after addition of pimobendan to ACE inhibitor treatment; Ouellet M et al. 2009; cited from earlier work
dogs = conditions: two dogs; long-term (chronic) clinical therapy; Tissier R et al. 2005; cited from earlier work
[4] = system: dogs with MMVD and echocardiographic and radiographic evidence of cardiomegaly; test: Blinded, placebo controlled study of 360 dogs (preliminary analysis of final results)

SMILES: COc1ccc(-c2nc3ccc(C4=NNC(=O)CC4C)cc3[nH]2)cc1 (stereo not shown) [pimobendan, 4,5-dihydro-6-[2-(4-methoxyphenyl)-1H-benzimidazol-5-yl]-5-methyl-3(2H)-pyridazinone]
- extension of survival time (all-cause mortality) compared to placebo ([1]; also printed as 5.6 months): approx. 168 days
- prolongation of time to the onset of clinical signs of congestive heart failure compared to placebo ([1]; also printed as 12.0 months): approx. 359 days
- safety and tolerability [2]: safe and well tolerated
- long-term changes in the severity of mitral regurgitation [3]: failed to identify beneficial long-term changes
- adverse effects (dogs): increased mitral valve regurgitation and myocardial hypertrophy
- heart size ([4]; compared to the placebo group, measured over the first 35 days of the study, P<0.0001): reduction in heart size
- rate or type of potential adverse events ([4]; pimobendan group vs placebo group): no difference between groups
- Median time to the primary endpoint ([4]; pimobendan group, 95% CI 856—NA, placebo group 766 days, P=0.0038): 1228 days
- Prolongation of the preclinical period ([4]; vs placebo group): approximately 15 months
- Overall survival, as determined by All Cause Mortality ([4]; vs placebo group, P=0.012): significantly longer
